ChEMBL document CHEMBL3879915, “Methods of inhibiting PRMT5” (2014)

Experiments:
PRMT5/MEP50 complex = PRMT5/MEP50 complex (Homo sapiens, UniProt O14744); test: Inhibition of recombinant human fetal brain FLAG-tagged PRMT5/full length human testis 6His-tagged MEP50 expressed in baculovirus infected insect Sf9 cells using human histone H4 (1 to 15 residues) as substrate preincubated for 30 mins followed by [3H]-SAM addition
[1] = molecular target: Protein arginine N-methyltransferase 5 (Homo sapiens, UniProt O14744); test: Inhibition of PRMT5 in human Z138 cells assessed as decrease in di-methyl arginine levels after 96 hrs by Western blot method; type: cell-based
[2] = Antiproliferative activity against human Z138 cells assessed as inhibition of cell viability after 5 days by Cell-Titer Glo assay; type: functional, cell-based; settings: Z-138, 120 h

Chain of PRMT5/MEP50 complex (O14744 whole entry, the tested form may be a part): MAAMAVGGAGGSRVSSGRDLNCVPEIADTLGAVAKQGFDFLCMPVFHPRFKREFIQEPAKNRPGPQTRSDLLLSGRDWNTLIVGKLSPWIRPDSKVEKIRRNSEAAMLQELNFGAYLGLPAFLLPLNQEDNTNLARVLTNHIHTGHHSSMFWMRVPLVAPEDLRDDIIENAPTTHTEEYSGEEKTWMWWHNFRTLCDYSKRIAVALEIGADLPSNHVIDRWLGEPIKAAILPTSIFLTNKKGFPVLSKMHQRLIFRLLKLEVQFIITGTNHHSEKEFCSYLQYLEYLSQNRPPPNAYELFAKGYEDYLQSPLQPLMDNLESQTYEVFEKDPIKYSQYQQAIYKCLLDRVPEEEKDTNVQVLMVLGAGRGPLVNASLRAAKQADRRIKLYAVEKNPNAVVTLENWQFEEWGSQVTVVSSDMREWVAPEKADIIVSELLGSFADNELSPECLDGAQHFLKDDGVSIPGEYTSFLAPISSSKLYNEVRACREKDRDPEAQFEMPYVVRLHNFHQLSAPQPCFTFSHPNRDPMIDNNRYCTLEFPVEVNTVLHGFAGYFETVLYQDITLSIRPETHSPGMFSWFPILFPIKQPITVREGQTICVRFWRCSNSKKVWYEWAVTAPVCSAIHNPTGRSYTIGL
Chain of PRMT5/MEP50 complex (Q9BQA1 whole entry, further chain, the tested form may be a part): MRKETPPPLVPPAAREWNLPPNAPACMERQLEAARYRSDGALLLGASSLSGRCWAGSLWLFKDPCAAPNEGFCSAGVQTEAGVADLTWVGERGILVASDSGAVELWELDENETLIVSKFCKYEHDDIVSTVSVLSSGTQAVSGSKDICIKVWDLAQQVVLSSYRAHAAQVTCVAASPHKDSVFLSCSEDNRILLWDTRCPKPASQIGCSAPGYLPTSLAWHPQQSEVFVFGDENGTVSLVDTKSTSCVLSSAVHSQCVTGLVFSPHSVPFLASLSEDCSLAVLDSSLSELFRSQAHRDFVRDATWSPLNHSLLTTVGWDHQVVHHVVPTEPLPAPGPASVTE
Chain of Protein arginine N-methyltransferase 5 (O14744 whole entry): as the sequence (O14744 whole entry, the tested form may be a part) above

Structure (SMILES)	IC50 (PRMT5/MEP50 complex) [nM]	EC50 [1] [nM]	EC50 [2] [nM]
O=C(COc1ccccc1C1CCNC1)NCC(O)CN1CCc2ccccc2C1 (configuration not stated)	1000 to 10000	1000 to 10000	> 20000
CN(c1cccc(OCC(=O)NCC(O)CN2CCc3ccccc3C2)c1)S(C)(=O)=O (configuration not stated)	101 to 1000	101 to 1000	> 20000
O=C(NCC(O)CN1CCc2ccccc2C1)c1cccnc1 (configuration not stated)	101 to 1000	101 to 1000	10000 to 50000
CC(=O)Nc1ccc(C(=O)NCC(O)CN2CCc3ccccc3C2)cc1 (configuration not stated)	101 to 1000	101 to 1000	> 20000
O=C(COc1cccc2ncc(=O)[nH]c12)NCC(O)CN1CCc2ccccc2C1 (configuration not stated)	101 to 1000	1000 to 10000	> 20000
NC(=O)c1ccc(C(=O)NCC(O)CN2CCc3ccccc3C2)cc1 (configuration not stated)	101 to 1000	101 to 1000	> 20000
O=C(NC[C@H](O)CN1CCc2ccccc2C1)Nc1ccccc1	101 to 1000	101 to 1000	> 20000
CC(Oc1ccccc1S(C)(=O)=O)C(=O)NCC(O)CN1CCc2ccccc2C1 (configuration not stated)	101 to 1000	1000 to 10000	> 20000
O=C(COc1cccc2c1OCC(=O)N2)NCC(O)CN1CCc2ccccc2C1 (configuration not stated)	1000 to 10000	1000 to 10000	> 20000
CS(=O)(=O)N1CCN(c2ccccc2OCC(=O)NCC(O)CN2CCc3ccccc3C2)CC1 (configuration not stated)	101 to 1000	101 to 1000	> 20000
Cn1cc2c(OCC(=O)NCC(O)CN3CCc4ccccc4C3)cccc2n1 (configuration not stated)	101 to 1000	1000 to 10000	> 20000
CN(C)C(=O)c1ccccc1OCC(=O)NCC(O)CN1CCc2ccccc2C1 (configuration not stated)	101 to 1000	101 to 1000	10000 to 50000
CN1CCc2cccc(OCC(=O)NCC(O)CN3CCc4ccccc4C3)c2C1 (configuration not stated)	101 to 1000	1000 to 10000	> 20000
NS(=O)(=O)c1ccc(C(=O)NCC(O)CN2CCc3ccccc3C2)cc1 (configuration not stated)	101 to 1000	101 to 1000	> 20000
CN(C)c1ccc2cccc(OCC(=O)NC[C@H](O)CN3CCc4ccccc4C3)c2n1	101 to 1000	1000 to 10000	> 20000
O=C(COc1ccccc1C1CCCNC1)NCC(O)CN1CCc2ccccc2C1 (configuration not stated)	101 to 1000	101 to 1000	1000 to 10000
CN1CCC(c2ccccc2OCC(=O)NCC(O)CN2CCc3ccccc3C2)CC1 (configuration not stated)	101 to 1000	1000 to 10000	> 20000
O=C(COc1ccccc1-c1ncc[nH]1)NCC(O)CN1CCc2ccccc2C1 (configuration not stated)	101 to 1000	1000 to 10000	> 20000
CN(C)c1ncccc1OCC(=O)NCC(O)CN1CCc2ccccc2C1 (configuration not stated)	101 to 1000	1000 to 10000	> 20000
COc1ccc2cccc(OCC(=O)NC[C@H](O)CN3CCc4ccccc4C3)c2n1	101 to 1000	101 to 1000	1000 to 10000
CC(=O)N1CCN(S(=O)(=O)c2ccccc2OCC(=O)NCC(O)CN2CCc3ccccc3C2)CC1 (configuration not stated)	101 to 1000	1000 to 10000	> 20000
CNC(=O)c1ccccc1OCC(=O)NCC(O)CN1CCc2ccccc2C1 (configuration not stated)	101 to 1000	101 to 1000	> 20000
O=C(NCC(O)CN1CCc2ccccc2C1)c1ccccn1 (configuration not stated)	101 to 1000	101 to 1000	> 20000
CN(C)c1ccc2cccc(OCC(=O)NC[C@@H](O)CN3CCc4ccccc4C3)c2n1	< 100	101 to 1000	1000 to 10000
O=C(NCC(O)CN1CCc2ccccc2C1)c1ccccc1-c1ccccn1 (configuration not stated)	101 to 1000	1000 to 10000	> 20000

Continued, in another order:

IC50 (PRMT5/MEP50 complex) [nM]	EC50 [1] [nM]	Structure (SMILES)	EC50 [2] [nM]
< 100	< 100	O=C(NCC(O)CN1CCc2ccccc2C1)c1ccc(-c2ccccn2)cc1 (configuration not stated)	101 to 1000
< 100	< 100	O=C(NCC(O)CN1CCc2ccccc2C1)c1cccc(-c2ccncc2)c1 (configuration not stated)	1000 to 10000
< 100	< 100	O=C(NCC(O)CN1CCc2ccccc2C1)c1cccc(-c2cccnc2)c1 (configuration not stated)	1000 to 10000
< 100	< 100	CC(=O)N1CCc2c(cccc2OCC(=O)NCC(O)CN2CCc3ccccc3C2)C1 (configuration not stated)	1000 to 10000
< 100	< 100	O=C(COc1cccc2c1OCCO2)NCC(O)CN1CCc2ccccc2C1 (configuration not stated)	1000 to 10000
< 100	< 100	CN(C)S(=O)(=O)c1ccccc1OCC(=O)NCC(O)CN1CCc2ccccc2C1 (configuration not stated)	101 to 1000
< 100	< 100	CS(=O)(=O)N1CCc2c(cccc2OCC(=O)NCC(O)CN2CCc3ccccc3C2)C1 (configuration not stated)	1000 to 10000
< 100	101 to 1000	O=C(NC[C@@H](O)CN1CCc2ccccc2C1)c1cccc(-c2ccccn2)c1	10000 to 50000
< 100	101 to 1000	O=C(COc1ccc2c(cnn2C2CCNC2)c1)NCC(O)CN1CCc2ccccc2C1 (configuration not stated)	10000 to 50000
< 100	101 to 1000	CN1CCc2c(cccc2OCC(=O)NCC(O)CN2CCc3ccccc3C2)C1 (configuration not stated)	1000 to 10000
< 100	101 to 1000	O=C(COc1cccc2c1CNCC2)NCC(O)CN1CCc2ccccc2C1 (configuration not stated)	10000 to 50000
< 100	< 100	O=C(NCC(O)CN1CCc2ccccc2C1)c1cccc(-c2ccccn2)c1 (configuration not stated)	1000 to 10000
< 100	< 100	O=C(COc1ccccc1S(=O)(=O)N1CCNCC1)NCC(O)CN1CCc2ccccc2C1 (configuration not stated)	1000 to 10000
< 100	101 to 1000	O=C(NCC(O)CN1CCc2ccccc2C1)c1cccc(N2CCOCC2)c1 (configuration not stated)	1000 to 10000
< 100	< 100	COc1ccc2cccc(OCC(=O)NC[C@@H](O)CN3CCc4ccccc4C3)c2n1	1000 to 10000
< 100	101 to 1000	CN1CCCC(c2ccccc2OCC(=O)NCC(O)CN2CCc3ccccc3C2)C1 (configuration not stated)	1000 to 10000
< 100	101 to 1000	O=C(NCC(O)CN1CCc2ccccc2C1)c1cccc(CNC2CCOCC2)c1 (configuration not stated)	10000 to 50000
< 100	< 100	O=C(COc1ccccc1S(=O)(=O)N1CCC(O)C1)NCC(O)CN1CCc2ccccc2C1 (configuration not stated)	101 to 1000
< 100	101 to 1000	O=C(NCC(O)CN1CCc2ccccc2C1)c1cccc(-c2cc[nH]n2)c1 (configuration not stated)	1000 to 10000
< 100	101 to 1000	O=C(COc1ccccc1C1CCNCC1)NCC(O)CN1CCc2ccccc2C1 (configuration not stated)	> 20000
< 100	< 100	O=C(COc1ccccc1S(=O)(=O)N1CCCC1)NCC(O)CN1CCc2ccccc2C1 (configuration not stated)	101 to 1000
< 100	101 to 1000	CNS(=O)(=O)c1ccccc1OCC(=O)NCC(O)CN1CCc2ccccc2C1 (configuration not stated)	1000 to 10000
< 100	< 100	Cn1nccc1-c1cccc(C(=O)NCC(O)CN2CCc3ccccc3C2)c1 (configuration not stated)	1000 to 10000
< 100	< 100	O=C(NC[C@H](O)CN1CCc2ccccc2C1)c1cccc(-c2ccccn2)c1	101 to 1000
< 100	< 100	O=C(NCC(O)CN1CCc2ccccc2C1)c1cccc(NC2CCOCC2)c1 (configuration not stated)	101 to 1000
< 100	101 to 1000	CN1CCC(n2ncc3cc(OCC(=O)NCC(O)CN4CCc5ccccc5C4)ccc32)C1 (configuration not stated)	10000 to 50000
< 100	101 to 1000	CN1CCN(S(=O)(=O)c2ccccc2OCC(=O)NCC(O)CN2CCc3ccccc3C2)CC1 (configuration not stated)	10000 to 50000
< 100	< 100	O=C(NC[C@H](O)CN1CCc2ccccc2C1)c1ccccc1	1000 to 10000
< 100	101 to 1000	CS(=O)(=O)Nc1cccc(C(=O)NCC(O)CN2CCc3ccccc3C2)c1 (configuration not stated)	1000 to 10000
